Laboratory results published in patent US7851479B2, “Use of pyrimidinedione derivative for preventing or treating hepatitis C” (priority 2006, dated 2010).
Read-outs that look alike come from different tables or passages of the source.

How the values were obtained:
[1] = tested on: bovine viral diarrhea virus (BVDV); assay: anti-BVDV drug screening assay (CPE inhibition, MTS staining); type: cell-based; settings: for EC50: Bovine viral diarrhea virus isolates and strains, 144 h, read-out: MDBK/BVDV EC50; for TI (TC50/EC50): therapeutic index, MDBK TC50 / BVDV EC50
Protocol: To assess the effectiveness of the pyrimidinedione derivative used in the present invention as a drug for preventing or treating hepatitis C, an anti-BVDV drug screening assay was conducted with bovine viral diarrhea virus (BVDV). BVDV, a virus having a genome, reproduction cycle and infection type similar to hepatitis C virus, was employed because hepatitis C virus can not be subjected to […] cultivation.
(§1) One day before the screening, MDBK cell line (Mardin-Darby bovine kidney, ATTC CCL22) which had been subcultured previously was trypsinized and spread on a plate, followed by counting the cell colonies formed. Then, equal amount of DMEM (Dulbecco's Modified Eagle's Medium) and Ham's F-12 were mixed, and 10% fetal bovine serum was added to the resulting mixture to prepare a tissue culture medium. The MDBK cells were inoculated to the medium at a concentration of 6×10^4 cells/ml, and then the resulting cell solution was added to a 96-well flat-bottomed plate in an amount of 100 μl per well.
Meanwhile, BVDV (ATCC VR534), which had been stored in a −80° C. freezer at a pre-determined concentration, was transferred to a biological safety cabinet and allowed to thaw at room temperature. The virus was diluted with the tissue culture medium in an sufficient amount for the virus in each well to induce 85 to 95% cell death 6 days after the virus infection.
(§2) Specified pyrimidinedione derivatives (SAMJIN Pharmaceuticals) were prepared as test compounds and a conventional drug for treating hepatitis C, Ribavirin (Sigma) was used as a comparative drug. Each of the test compounds was dissolved in DMSO to prepare a sample solution. Then, the resulting sample solution was diluted with a mixture prepared by mixing equal amount of DMEM and Ham's F-12 in accordance with the three one-log series dilution to prepare sample dilutes.
(§3) One day after adding MDBK cells to the 96-well plate, the culture solution on the plate was removed and each of the sample dilutes obtained step 2 was added thereto, adjusting the final concentration thereof to 1 to 100 μg/ml. The comparative drug, Ribavirin, was added to each of the control wells of the palte at a concentration of 1 to 100 μg/ml.
(§4) The well-plate comprising ‘cell control group well’ containing MDBK cell only; ‘virus control well’ containing MDBK cell and BVDV virus; ‘drug toxicity control well’ containing MDBK cell and sample compounds for assessing the cell toxicity of each sample; ‘drug calorimetric control well’ containing only one of the sample compounds; and ‘experimental group well’ containing MDBK cell, BVDV virus and one of the sample compounds.
(§5) The well-plate had been placed in a 5% CO2 incubator at 37° C. for 6 days, and then, analyzed with Cell Proliferation Assay kit (CellTiter96® AQUEOUS one solution, Promega). The analysis involves the step of counting live cells by a colorimetric method and the kit contains MTS, a new tetrazolium compound which forms a stable solution when the test compounds are added, and PES, an electron coupling agent. In a cell having vigorous metabolism, NADPH or NADH generated by mitochodrial dehydrogenase renders the soluble MTS to a form of […] formazan crystals. Therefore, the amount of formazan crystal is directly proportional to the number of live cells in a medium.
(§6) The CellTiter96® AQUEOUS one solution reagent of 10 μl was added to each well of the plate and cultivated in a incubator at 37° C. for 4 hours. Then, the plate was covered with an adhesive plate sealer, mixing formazan crystals. Absorbance of each well was measured by Molecular Devices Vmax plate reader (Molecular Devices) at 490 nm.
The toxicity of each sample compound was analyzed with a in-house computer program and the cytopathic effect (CPE), followed by calculating % cell activity, therapeutic Index (TI). […]

[2] = drug toxicity control in uninfected MDBK cells (MTS staining); type: cell-based; settings: bovine
Protocol: as §1, §2, §3, §4, §5, §6
The toxicity of each sample compound was analyzed with a in-house computer program and the cytopathic effect (CPE), followed by calculating % cell activity, therapeutic Index (TI).
In table 2, EC50 means the dosage at which the desired response is present for 50% of the population, i.e., the concentration of the sample compounds at which the BVDV infection was inhibited for 50% of MDBK cells; TC50 means the dosage at which cell death is induced for 50% of the population, i.e., the cytotoxicity of the sample compounds for MDBK cells. TI (TC50/EC50) means a comparison of the amount of a therapeutic agent that causes the therapeutic effect to the amount that causes toxic effects. Quantitatively, it is the ratio given by the dose required to produce the toxic effect divided by the therapeutic dose.

[3] = concentration at which BVDV infection was inhibited for 50% of MDBK cells, 6 days, MTS

| Compound | EC50 [1, 3] [µM] | TI (TC50/EC50) [1] | CC50 at 6 days [2] [µM] | CC50 at 6 days ([2]; uninfected MDBK cells (drug toxicity control wells), cytotoxicity for MDBK cells, 6 days, MTS, read-out: MDBK TC50) [µM] | EC50 ([1]; MDBK) [µM] |
| --- | --- | --- | --- | --- | --- |
| Cc1cc(C)cc(Sc2c(C(C)C)c(=O)[nH]c(=O)n2CC2CCCCC2)c1 [Sample 1k, 1-cyclohexylmethyl-6-(3,5-dimethyl-phenylsulfanyl)-5-isopropyl-1H-pyrimidine-2,4-dione] | 1.29 | 5.11 | 6.6 | – | – |
| CCc1c(Oc2cc(C)cc(C)c2)n(CC2CC2)c(=O)[nH]c1=O [Sample 1b, 1-cyclopropylmethyl-6-(3,5-dimethyl-phenoxy)-5-ethyl-1H-pyrimidine-2,4-dione] | 14.1 | >7.1 | > 100 | – | – |
| Cc1cc(C)cc(Sc2c(C(C)C)c(=O)[nH]c(=O)n2CCC2CCCC2)c1 [Sample 1l, 1-(2-cyclopentyl-ethyl)-6-(3,5-dimethyl-phenylsulfanyl)-5-isopropyl-1H-pyrimidine-2,4-dione] | 14 | >3.6 | > 50 | – | – |
| NC(=O)c1ncn([C@@H]2O[C@H](CO)[C@@H](O)[C@H]2O)n1 [Ribavirin, reference compound] | 1.66 | 4.2 | – | 7 | – |
| CCc1c(C(=O)c2cc(C)cc(C)c2)n(CC2=CCCC2)c(=O)[nH]c1=O [Sample 1h, 1-cyclopent-1-enymethyl-6-(3,5-dimethyl-benzoyl)-5-ethyl-1H-pyrimidine-2,4-dione] | 13.9 | 1.2 | 17.1 | – | – |
| CCc1c(C(=O)c2cc(C)cc(C)c2)n(CC2=CCC(CO)C2)c(=O)[nH]c1=O (stereo not drawn) [Sample 1p, 6-(3,5-dimethyl-benzoyl)-5-ethyl-1-(4-hydroxymethyl-cyclopent-1-enylmethyl)-1H-pyrimidine-2,4-dione] | 15 | 5.11 | 66 | – | – |
| Cc1cc(C)cc(Sc2c(C(C)C)c(=O)[nH]c(=O)n2CC2CCC2)c1 [Sample 1c, 1-cyclobutylmethyl-6-(3,5-dimethyl-phenylsulfanyl)-5-isopropyl-1H-pyrimidine-2,4-dione] | 1.44 | 4.58 | 6.6 | – | – |
| Cc1cc(C)cc(Sc2c(C(C)C)c(=O)[nH]c(=O)n2CC2CCCC2)c1 [Sample 1d, 1-cyclopentylmethyl-6-(3,5-dimethyl-phenylsulfanyl)-5-isopropyl-1H-pyrimidine-2,4-dione] | 13.7 | >3.7 | > 50 | – | – |
| Cc1cc(C)cc(Oc2c(C(C)C)c(=O)[nH]c(=O)n2CC2=CCCC2)c1 [Sample 1g, 1-cyclopent-1-enymethyl-6-(3,5-dimethyl-phenoxy)-5-isopropyl-1H-pyrimidine-2,4-dione] | 20.1 | >2.5 | > 50 | – | – |
| Cc1cc(C)cc(Sc2c(C(C)C)c(=O)[nH]c(=O)n2CC2=CCCC2)c1 [Sample 1e, 1-cyclopent-1-enymethyl-6-(3,5-dimethyl-phenylsulfanyl)-5-isopropyl-1H-pyrimidine-2,4-dione] | 10.2 | >4.9 | > 50 | – | – |
| Cc1cc(C)cc(Sc2c(C(C)C)c(=O)[nH]c(=O)n2CC2CC2)c1 [Sample 1a, 1-cyclopropylmethyl-6-(3,5-dimethyl-phenylsulfanyl)-5-isopropyl-1H-pyrimidine-2,4-dione] | 1.57 | 4.2 | 6.6 | – | – |
| Cc1cc(C)cc(C(=O)c2c(C(C)C)c(=O)[nH]c(=O)n2CC2=CCCC2)c1 [Sample 1i, 1-cyclopent-1-enymethyl-6-(3,5-dimethyl-benzoyl)-5-isopropyl-1H-pyrimidine-2,4-dione] | 1.36 | 15.0 | 20.5 | – | – |
| Cc1cc(C)cc(Oc2c(C(C)C)c(=O)[nH]c(=O)n2CCC2C=CCC2)c1 (stereo not drawn) [Sample 1m, 1-(2-cyclopent-2-enyl-ethyl)-6-(3,5-dimethyl-phenoxy)-5-isopropyl-1H-pyrimidine-2,4-dione] | – | >3.7 | > 50 | – | 13.4 |
| Cc1cc(C)cc(C(=O)c2c(C(C)C)c(=O)[nH]c(=O)n2CCC2C=CCC2)c1 (stereo not drawn) [Sample 1o, 1-(2-cyclopent-2-enyl-ethyl)-6-(3,5-dimethyl-benzoyl)-5-isopropyl-1H-pyrimidine-2,4-dione] | – | 3.73 | 6.94 | – | 1.86 |
| CC(C)c1c(Sc2ccccc2)n(CC2CC=CC2)c(=O)[nH]c1=O [Sample 1j, 1-cyclopent-3-enymethyl-5-isopropyl-6-phenylsulfanyl-1H-pyrimidine-2,4-dione] | 13.7 | >3.7 | > 50 | – | – |
| CCc1c(Oc2cc(C)cc(C)c2)n(CC2=CCCC2)c(=O)[nH]c1=O [Sample 1f, 1-cyolopent-1-enymethyl-6-(3,5-dimethyl-phenoxy)-5-ethyl-1H-pyrimidine-2,4-dione] | 1.51 | >66.3 | > 100 | – | – |
